Data taken from EP3064205A1, “Therapeutic use of isomeric forms of 2-(4-chlorophenyl)quinolin-4-yl)(piperidin-2-yl)methanol” (Glionova AB, priority 2015, dated 2016).
“Also recorded” adds a separate entry of the source. Where two headings read alike, the source gives them in different places.

Tests used:
[1] = system: glioblastoma cell line U3013; assay: ATP viability assay (CellTiter-Glo); format: cell-based, human; conditions: U3013, dose response, CellTiterGlo ATP quantification
Method: (§1) The human melanoma cell line SK-MEL-28 is a well established reference cell line in melanoma research (Goodfellow M, et al. J. Natl. Cancer Inst. 59: 221-226, 1977). Cells were cultured in MEM supplemented with 10% FCS. Glioblastoma cell line (U3013) was generated directly from patient-derived tumors (Kitambi et al. Cell. 2014: 157(2):313-28) and grown in serum-free media supplemented with N2, B27, EGF, and FGF-2 (20 ng/ml) using previously described methodology (Pollard et al., 2009).
Culture plates were pre-coated with laminin (Sigma) for 3 hr at 10 ug/ml prior to use and confluent cells were split 1:3 to 1:5 using TrypLE Express (Invitrogen).
(§2) Viability assay was conducted in 96 well microtiter plates seeded with 3000 cells. Cell viability was measured using CellTiter-Glo assay (Promega), according to the manufacturer's instructions. Luminescence was measured using Victor3 FA (Perkin Elmer) microtiter plate reader. Total luminescence was normalized relative to negative control and curve fitting performed using GraphPad Prism (v6.02) software. IC50 was determined using Cell Viability assay, and data was illustrated using GraphPad Prism (version 6.02)

Panc-1 cells [2] = assay: Vacuolization, bright field microscopy; format: cell-based, human; conditions: Panc-1, 5µM or 10µM, 18h
From the text: The following well-characterized human pancreatic ductal adenocarcinoma cell lines (ATCC) were used: HPAF II, BxPC-3, MIA-PaCa2 and Panc-1. These cell lines were generated from patient-derived tumors and are widely used model system to study pancreatic cancer (HPAF II: Kim YW, et al. Pancreas 4: 353-362, 1989; BxPC-3: Tan MH, et al. Cancer Invest. 4: 15-23, 1986; MIA-PaCa2: Yunis AA, et al. Int. J. Cancer 19: 128-135, 1977; Pacn-1: Lieber M, et al. Int. J. Cancer 15: 741-747, 1975).
(§3) Cells were plated on glass slides and were treated with compound at the indicated concentrations for 18h before imaging. Digital images were taken using a Veleta camera (Olympus Soft Imaging Solutions).

KPC cells = assay: Vacuolization, bright field microscopy; format: cell-based, mouse; conditions: 5µM (3.3 µM elsewhere in the source) or 10µM, 18h
Method: as §3

SK-Mel-28 = assay: ATP viability assay (CellTiter-Glo); format: cell-based; conditions: Homo sapiens
Method: as §1, §2

SK-Mel-28 cells [3] = assay: Long term toxicity (viability assay up to 25 days); format: cell-based, human
Method: as §2
(§4) SK-Mel-28 and Panc-1 cells were plated on 96 well plates. Three hours post-seeding, cells were treated with 10 µM, 1 µM, 0.1 µM and 0.01 µM of S2 or vehicle (DMSO). Viability assay was conducted after 24 h, 72 h, 5 days, 10 days, 15 days, 20 days and 25 days, as described above. Media was changed every two days. […] Cell viability at each concentration was quantified relative to DMSO control at any time point (each time point had its own control), and was presented as fraction of control. Each treatment and the adequate control and was performed in 3, 4 and 6 repeats. Error bars indicate standard error (SE).
as §4, with “Vacquionol-1 SR (S2)” for “S2”

Panc-1 cells [4] = assay: Long term toxicity (viability assay up to 25 days); format: cell-based, human
Method: as §2, §4
as §4, with “Vacquionol-1 SR (S2)” for “S2”

[5] = Pharmacokinetic evaluation in mice (plasma and brain); format: in vivo, male NMRI mice; conditions: for Kp / Tmax / Cmax: male, NMRI, mouse; for Kp: brain/plasma, single oral administration of 20 mg/kg
Method: Compounds S1 and S2 were formulated at 0.4 mg/mL in 7.5% NMP, 10% Kolliphor in 0.9% NaCl (for i.v. administration) and at 2.0 mg/mL in 0.1% Tween 80, 0.5% Na-CMC in water (for p.o. administration).
The pharmacokinetic properties of S1 and S2 were determined in male NMRI mice (Charles River, Germany) following single intravenous (i.v., tail vein, 2 mg/kg) or per oral (p.o, gavage, 20 mg/kg). Light isoflurane anaesthesia was used at i.v. administration, no anaesthesia was used at p.o. administration. Blood samples were kept on ice after sampling and centrigued at +4 °C, 1800 x g for 5 minutes to prepare plasma. Blood and homogenized brain samples were taken from animals at the following nominal time points: 15, 30, and 60 minutes, and 2, 4, 6, 8, 24, 48, 72 and 144 hours after dosing (n=3 samples/time-point). Blood sampling (400-600 microliters) was performed by orbital plexus collection under isoflurane anaesthesia into EDTA plasma tubes (BD Microtainer K2EDTA). Bioanalytical quantification of S1 and S2 was analysed in plasma and brain samples by a UPLC-MS/MS. Pharmacokinetics were calculated by non-compartmental analysis (NCA) from composite (mean) profiles using Phoenix WinNonlin Professional (v 6.3). Nominal sampling times and dose levels have been used for the NCA calculations. All animals dosed with S1 and S2 were systemically exposed to the test compound. The plasma and brain concentrations were detectable and analysed until 144 h.
Brain sampling was performed after the end of blood sampling at the specified time points following euthanization and skull extraction. Brains were weighed and placed in test tubes and placed on wet ice. 4 mL PBS (pH 7.4) per 1 g of brain tissue was added to the test tube and brains were then homogenized using an Ultra-Turrax T25 homogenisator (Setting 2, 9500 rpm, 10s). The homogenates were frozen at -20° C immediately after homogenization.

SK-Mel-28 cells [6] = assay: Vacuolization, bright field microscopy; format: cell-based, human; conditions: SK-Mel-28, 5µM or 10µM, 18h
Method: as §1, §3

O[C@H](c1cc(-c2ccc(Cl)cc2)nc2ccccc12)[C@H]1CCCCN1 [S3, (R)-(2-(4-chlorophenyl)quinolin-4-yl)((R)-piperidin-2-yl)methanol]
in vitro cytotoxicity, comparison of isolated isomers [1]: S1 and S2 exhibit greater in vitro oncolytic potency than the corresponding S3 and S4 isomers; also recorded: S1 and S2 exhibit higher cytotoxicity on cancer cells than S3 and S4

O[C@@H](c1cc(-c2ccc(Cl)cc2)nc2ccccc12)[C@@H]1CCCCN1 [S4, (S)-(2-(4-chlorophenyl)quinolin-4-yl)((S)-piperidin-2-yl)methanol]
in vitro cytotoxicity, comparison of isolated isomers [1]: S1 and S2 exhibit greater in vitro oncolytic potency than the corresponding S3 and S4 isomers; also recorded: S1 and S2 exhibit higher cytotoxicity on cancer cells than S3 and S4

O[C@@H](c1cc(-c2ccc(Cl)cc2)nc2ccccc12)[C@H]1CCCCN1 [S2, (S)-(2-(4-chlorophenyl)quinolin-4-yl)((R)-piperidin-2-yl)methanol]
in vitro cytotoxicity, comparison of isolated isomers [1]: S1 and S2 exhibit greater in vitro oncolytic potency than the corresponding S3 and S4 isomers; also recorded: S1 and S2 exhibit higher cytotoxicity on cancer cells than S3 and S4
vacuole formation (Panc-1 cells [2]): stimulate vacuole formation
vacuole formation (Panc-1 cells [2]; listed as Vacquinol-1 SR (S2)): stimulates vacuole formation
vacuole formation (KPC cells): stimulate vacuole formation
vacuole formation (KPC cells; listed as Vacquinol-1 SR (S2)): stimulates vacuole formation
IC50 (SK-Mel-28; SK-MEL-28, 24 h): 3600 nM
IC50 (SK-Mel-28; SK-MEL-28, 48 h): 2400 nM
IC50 (SK-Mel-28; SK-MEL-28, 72 h): 2100 nM
long term toxicity (SK-Mel-28 cells [3]; SK-Mel-28, 10, 1, 0.1, 0.01 µM, up to 25 days): dose-dependent cytotoxic effect
long term toxicity, lower concentrations (SK-Mel-28 cells [3]; SK-Mel-28, long term exposure of lower concentrations): complete death of the cells
long term toxicity (Panc-1 cells [4]; Panc-1, 10, 1, 0.1, 0.01 µM, up to 25 days): dose-dependent cytotoxic effect
long term toxicity, lower concentrations (Panc-1 cells [4]; Panc-1, long term exposure, 1µM): complete death
Brain AUC last ([5]; brain, i.v., 2 mg/kg): 9050 ng·h/mL
Brain Cmax ([5]; brain, i.v., 2 mg/kg): 777 ng/mL
Brain tlast ([5]; brain, i.v., 2 mg/kg): 72 h
Brain AUC last ([5]; brain, p.o., 20 mg/kg): 157000 ng·h/mL
Brain Cmax ([5]; brain, p.o., 20 mg/kg): 1490 ng/mL
Brain tlast ([5]; brain, p.o., 20 mg/kg): 144 h
Kp ([5]; po, 20 mg/kg, read-out: exposure ratio AUC(brain/plasma)): 0.9
Kp ([5]; po, 20 mg/kg, read-out: exposure ratio Cmax(brain/plasma)): 0.7
Tmax ([5]; iv, brain, i.v., 2 mg/kg, read-out: Brain tmax): 1 h
Cmax ([5]; iv, plasma, 2 mg/kg): 455 ng/mL
Tmax ([5]; iv, plasma, i.v., 2 mg/kg, read-out: Plasma tmax): 0.5 h
Tmax ([5]; po, brain, p.o., 20 mg/kg, read-out: Brain tmax): 6 h
Cmax ([5]; po, plasma, 20 mg/kg): 2050 ng/mL
Tmax ([5]; po, plasma, p.o., 20 mg/kg, read-out: Plasma tmax): 8 h
Plasma AUC last ([5]; plasma, i.v., 2 mg/kg): 14100 ng·h/mL
Plasma tlast ([5]; plasma, i.v., 2 mg/kg): 72 h
Plasma AUC last ([5]; plasma, p.o., 20 mg/kg): 183000 ng·h/mL
Plasma tlast ([5]; plasma, p.o., 20 mg/kg): 144 h
vacuole formation (SK-Mel-28 cells [6]): stimulate vacuole formation
vacuole formation (SK-Mel-28 cells [6]; listed as Vacquinol-1 SR (S2)): stimulates vacuole formation
